According to patent US20190192524A1, “Modulators of Caspase-6” (The University of British Columbia, priority 2014, published 2019):

Legend:
caspase-6 = biological target: T1, caspase-6 (Mus musculus, UniProt O08738); test: Lamin A cleavage in primary cortical neuronal culture treated with camptothecin; format: cell-based, FVB/N mice; settings: 10 uM compound; 10 uM camptothecin for 30 h
T1 construct: endogenous in cells; host or cells: primary cortical neurons from FVB/N mice
T1 sequence (O08738 6-276): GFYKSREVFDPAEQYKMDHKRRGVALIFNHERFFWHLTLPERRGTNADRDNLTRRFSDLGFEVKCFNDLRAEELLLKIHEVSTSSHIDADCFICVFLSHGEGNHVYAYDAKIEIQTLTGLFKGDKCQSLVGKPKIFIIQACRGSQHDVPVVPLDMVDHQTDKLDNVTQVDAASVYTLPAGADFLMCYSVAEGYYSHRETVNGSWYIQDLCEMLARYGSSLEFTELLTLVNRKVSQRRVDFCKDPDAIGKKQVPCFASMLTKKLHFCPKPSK
Experimental: Cortical neuronal cultures from FVB mice were prepared as described (Metzler et al, J Neurosci (2007) 27(9):2298). At day 10 in vitro, cells were treated with camptothecin, and after 30 h harvested by scraping in PBS supplemented with 1× complete protease inhibitor (Roche) and 4 mM Pefabloc. Cells were lysed by suspension in lysis buffer (50 mM Tris pH8, 150 mM NaCl, 1% Igepal, supplemented with 1× complete protease inhibitor (Roche) and 4 mM Pefabloc). Lysates were incubated on ice for 10 min, vortexed and sonicated for 4 sec before centrifugation at 21 000×g for 10 min at 4° C. Supernatants were saved, protein concentration determined with the Biorad DC assay and quantitative assessment of cleaved lamin A in neuronal lysates was performed with the Mesoscale ELISA method as described in Ehrnhoefer et al. PLoS One, 2011. 6(11):e27680.
Next, it was determined whether the PG-3d compound could inhibit caspase-6 within neuronal cells in an in vitro neuronal system which may be more relevant for the testing of therapeutics for neurodegeneration. Briefly, primary cortical neuronal cultures from FVB/N mice were treated with 10 uM camptothecin for 30 h starting at DIV10 in the presence or absence of 10 uM of the PG-3d compound.

[1] = biological target: T2, full-length human caspase-6 (Homo sapiens, UniProt P55212); test: Western blot of Htt fragments in COS-7 cells co-transfected with Htt 1-1212AA and full-length caspase-6; format: cell-based; settings: 10 uM compound, 24 hr, vs DMSO
T2 construct: DDK-tag (C); expressed in transfected cells; host or cells: COS-7
T2 sequence (P55212 with tags, fused parts or gaps): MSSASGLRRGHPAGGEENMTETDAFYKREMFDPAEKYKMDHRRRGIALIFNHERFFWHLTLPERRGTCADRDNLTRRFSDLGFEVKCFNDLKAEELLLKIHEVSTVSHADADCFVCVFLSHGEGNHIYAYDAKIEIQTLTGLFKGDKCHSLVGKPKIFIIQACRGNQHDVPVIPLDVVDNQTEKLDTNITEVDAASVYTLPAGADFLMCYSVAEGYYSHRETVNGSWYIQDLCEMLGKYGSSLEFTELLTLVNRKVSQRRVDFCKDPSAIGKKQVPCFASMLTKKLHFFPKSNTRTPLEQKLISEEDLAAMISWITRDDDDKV
Experimental: (§1) COS-7 cells were co-transfected with the 1212 amino acid HTT fragment (SEQ ID NO: 3) and the full length human caspase-6 enzyme (SEQ ID NO:4). The co-transfected cells were exposed to either 10 uM of the PG3d compound, 3 uM of the Q-VD-Oph pan-caspase inhibitor or were treated with DMSO as a control. An aliquot of the cell lysates were subjected to Western blotting to detect HTT fragments with the Htt antibody 2166 (Millipore) and the presence of caspase-6 was detected using the HD91 antibody (Ehrnhoefer et al, HMG, 2014. 23(3):717-29). The remaining cell lysates (500 ug protein) were immunoprecipitated with 5 ug of Caspase-6 antibody for 16 hrs at 4 C. The immunoprecipitated proteins were then applied to acrylamide gels and immunoblotted to detect either the HTT fragments or the presence of the active caspase 6 enzyme using the antibodies described above.
Cos-7 cells were co-transfected with Htt 1-1212AA (SEQ ID NO:3) and full-length human caspase-6 (SEQ ID NO:6), and exposed to either the pan-caspase inhibitor Q-VD-OPh, the PG3d compound or DMSO as a negative control. As shown in the upper panel of FIG. 9A, control cells that received DMSO alone (lanes labelled n.t.) show the presence of the Htt 1212AA protein and the Htt proteolytic cleavage fragments including the 586, 552 and 513 amino acid fragments. […]

[2] = biological target: T3, interaction between 1212AA Htt and caspase-6 (Homo sapiens, UniProt P55212); test: Co-immunoprecipitation of Htt with caspase-6 antibody from COS-7 lysates; format: cell-based; settings: 10 uM compound, vs DMSO
T3 construct: DDK-tag (C); expressed in transfected cells; host or cells: COS-7
T3 sequence (P55212 with tags, fused parts or gaps): T2 sequence (P55212 with tags, fused parts or gaps)
Experimental: as §1
As expected, the DMSO control lysates reveal a variety of Htt fragments within the immunocomplexes, including 513AA fragment generated by caspase-3 cleavage, the full-length 1212AA Htt and the 586AA fragment generated by caspase-6 cleavage. When the cells are treated with the pan-caspase inhibitor Q-VD-OPh, the amount of Htt cleavage fragments interacting with caspase-6 is reduced and it is evident that caspase-6 is primarily interacting with the 1212 AA Htt.

Question: Which melting point does the source give for O=c1oc(C#Cc2ccccc2)nc(O)c1Cc1ccccc1 [PG-3d, 5-Benzyl-4-hydroxy-2-(phenylethynyl)-6H-1,3-oxazin-6-one] here?
Answer: 179 to 181 °C

Question: What about the “caspase-6 activity (cleaved lamin A)” value (caspase-6) of the same compound?
Answer: significantly reduces

Question: And the “level of the 586AA Htt fragment” value [1]?
Answer: reduction

Question: What about the “interaction between 1212AA Htt and caspase-6 (co-immunoprecipitated Htt)” value [2] of the same compound?
Answer: significantly reduces
